Data as given in PubChem BioAssay (NCI).
Several values for one entry are separate records, joined by “and”; a condition that tells them apart may be missing. Identical values can stand only once.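 96-well plates; 48 h exposure; 5 concentrations. Endpoints by linear interpolation between flanking doses. Not reached: highest tested concentration assigned. Here, GI50 denotes the concentration required for 50% inhibition of growth. Definition used: TGI = concentration required for complete inhibition of growth.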

Tests used:
Test in all cases: NCI tumour cell line growth inhibition, 48 h
[1] = tested on: NCI-H226 lung
[2] = tested on: 786-0 renal
[3] = tested on: PC-3 prostate
[4] = tested on: BT-549 breast
[5] = tested on: SK-OV-3 ovarian
[6] = tested on: SNB-19 CNS
[7] = tested on: OVCAR-8 ovarian
[8] = tested on: SK-MEL-2 melanoma
[9] = tested on: HS 578T breast
[10] = tested on: SN12C renal

COc1ccc2c(c1OC)C(=O)O[C@@H]2[C@H]1c2c(c(Br)c3c(c2OC)OCO3)CCN1C
GI50 [1]: 44.1 µM
TGI [1]: > 100 µM
GI50 [2]: 12 µM
TGI [2]: > 100 µM
GI50 [3]: 9.11 µM
TGI [3]: > 100 µM
GI50 [4]: > 100 µM
TGI [4]: > 100 µM
GI50 [5]: > 100 µM
TGI [5]: > 100 µM
GI50 [6]: 75.9 µM
TGI [6]: > 100 µM
GI50 [7]: 32.4 µM
TGI [7]: > 100 µM
GI50 [8]: > 100 µM
TGI [8]: > 100 µM
GI50 [9]: 31.4 µM
TGI [9]: > 100 µM
GI50 [10]: > 100 µM
TGI [10]: > 100 µM

COc1cc2c3cc1Oc1c(OC)c(OC)cc4c1C(Cc1ccc(cc1)Oc1cc(ccc1O)CC3N(C)CC2)N(C)CC4 (stereo not given)
TGI [1]: 40.6 µM and 37.5 µM
GI50 [2]: > 100 µM and 10.2 µM
TGI [2]: > 100 µM and 38.5 µM
TGI [3]: 28.4 µM
TGI [4]: 22.8 µM
TGI [5]: 69.6 µM and 86.2 µM
GI50 [6]: 28.6 µM and 12 µM
TGI [6]: 72.7 µM and 24.7 µM
TGI [7]: > 100 µM and 34.8 µM
TGI [8]: 27 µM and 24.8 µM
TGI [9]: 31.4 µM
TGI [10]: 61.3 µM and 30.6 µM

COc1cc(NC(=O)c2cc(O)c(C/C=C(\C)CCC=C(C)C)c(O)c2)cc2c1O[C@]1(C)CC[C@@H](O)C(C)(C)[C@H]1C2
GI50 [1]: 3.34 µM
TGI [1]: 16.2 µM
GI50 [2]: 0.604 µM
TGI [2]: 6.44 µM
GI50 [3]: 0.849 µM
TGI [3]: 7.16 µM
GI50 [4]: 0.841 µM
TGI [4]: 3.55 µM
GI50 [5]: 1.79 µM
TGI [5]: 12.9 µM
GI50 [6]: 1.36 µM
TGI [6]: 4.46 µM
GI50 [7]: 2.58 µM
TGI [7]: 14.7 µM
GI50 [8]: 1.06 µM
TGI [8]: 3.43 µM
GI50 [9]: 0.348 µM
TGI [9]: 8.75 µM
GI50 [10]: 2.9 µM
TGI [10]: 12.1 µM

Nc1nc(Cl)nc2c1ncn2[C@@H]1O[C@H](COS(N)(=O)=O)[C@@H](O)[C@H]1O
GI50 [1]: 0.0174 µM and 0.0167 µM
TGI [1]: 0.0401 µM and 0.0463 µM
GI50 [2]: 0.0214 µM and 0.0266 µM
TGI [2]: 0.0556 µM and 0.0741 µM
GI50 [3]: 0.0209 µM and 0.0258 µM
TGI [3]: 0.0737 µM and 0.08 µM
GI50 [4]: 0.009 µM and 0.0243 µM
TGI [4]: 0.0646 µM and 0.0713 µM
GI50 [5]: 0.0248 µM and 0.026 µM
TGI [5]: 0.0739 µM and 0.0666 µM
GI50 [6]: 0.00365 µM
TGI [6]: 0.0323 µM and 0.0465 µM
GI50 [7]: 0.0178 µM and 0.0171 µM
TGI [7]: 0.0562 µM and 0.0453 µM
GI50 [8]: 0.0185 µM and 0.0195 µM
TGI [8]: 0.0437 µM and 0.0429 µM
GI50 [9]: 0.0263 µM and 0.0256 µM
TGI [9]: 0.0869 µM and 0.0787 µM
GI50 [10]: 0.00377 µM
TGI [10]: 0.0417 µM and 0.0868 µM

COc1ccc(OC)c(/C=N/N=C2\C(=O)Nc3c(Cl)cc(Cl)cc32)c1
TGI [1]: > 100 µM
TGI [2]: > 100 µM
TGI [3]: > 100 µM
TGI [4]: 72.5 µM
TGI [5]: > 100 µM
TGI [6]: > 100 µM
TGI [7]: > 100 µM
TGI [8]: 68.8 µM
TGI [9]: 83.5 µM
TGI [10]: > 100 µM

Cc1ccc(-c2c3c(N)c4c(nc3nc3c2c(C)nn3-c2ccccc2)CCC4)cc1
GI50 [1]: 22.1 µM
TGI [1]: 53.7 µM
GI50 [2]: 1.87 µM
TGI [2]: 3.65 µM
GI50 [3]: 5.07 µM
TGI [3]: 20.9 µM
GI50 [4]: 20.7 µM
TGI [4]: 45.5 µM
GI50 [5]: 7.01 µM
TGI [5]: 15 µM
GI50 [6]: 3.85 µM
TGI [6]: 18 µM
GI50 [7]: 2.32 µM
TGI [7]: 5.89 µM
GI50 [8]: 21.1 µM
TGI [8]: 42.6 µM
GI50 [9]: 5.03 µM
TGI [9]: 15.6 µM
GI50 [10]: 1.83 µM
TGI [10]: 3.74 µM

O=C1NC(c2ccccc2)N=C2Oc3ccccc3C=C12 (stereo not given)
TGI [1]: 12.8 µM
TGI [2]: > 39 µM
TGI [3]: > 100 µM
TGI [4]: > 100 µM
TGI [5]: > 100 µM
TGI [6]: > 100 µM
TGI [7]: > 100 µM
TGI [8]: > 100 µM
TGI [9]: 7.06 µM
TGI [10]: > 100 µM

c1ccc2c(CN3CCC(C4CCN(Cc5cccc6ccccc56)CC4)CC3)cccc2c1
GI50 [1]: 31.7 µM and 96.8 µM
TGI [1]: > 100 µM
TGI [2]: 32.2 µM and 34.5 µM
TGI [3]: > 100 µM
TGI [4]: > 100 µM
TGI [5]: 75.2 µM and > 100 µM
GI50 [6]: 40.1 µM and > 100 µM
TGI [6]: > 100 µM
GI50 [7]: 21.8 µM and 6.98 µM
TGI [7]: > 72.4 µM
TGI [8]: 15.2 µM and 37.1 µM
TGI [9]: > 100 µM
TGI [10]: > 100 µM

Cc1ccccc1NC(=O)c1cc2ccccc2cc1O
GI50 [1]: 3.59 µM
TGI [1]: > 100 µM
GI50 [2]: 3.41 µM
TGI [2]: > 100 µM
GI50 [3]: 2.7 µM
TGI [3]: 8.81 µM
GI50 [4]: 3.46 µM
TGI [4]: 8.43 µM
GI50 [5]: 2.64 µM
TGI [5]: 14.6 µM
GI50 [6]: 4.6 µM
TGI [6]: > 100 µM
GI50 [7]: 3.46 µM
TGI [7]: 59.3 µM
GI50 [8]: 3.33 µM
TGI [8]: 8.05 µM
GI50 [9]: 3.12 µM
TGI [9]: 8.38 µM
GI50 [10]: 2.62 µM
TGI [10]: 9.18 µM

O=C1NC(SCc2ccc(F)cc2)=N/C1=C/c1cccc(OCc2ccc(Cl)cc2)c1
GI50 [1]: 5.42 µM
TGI [1]: > 100 µM
GI50 [2]: 2.88 µM
TGI [2]: 8.8 µM
GI50 [3]: > 100 µM
TGI [3]: > 100 µM
GI50 [4]: 23.4 µM
TGI [4]: > 100 µM
GI50 [5]: 36.9 µM
TGI [5]: > 100 µM
GI50 [6]: 21.7 µM
TGI [6]: > 100 µM
GI50 [7]: 18.8 µM
TGI [7]: > 100 µM
GI50 [8]: > 100 µM
TGI [8]: > 100 µM
GI50 [9]: 9.36 µM
TGI [9]: > 100 µM
GI50 [10]: 4.52 µM
TGI [10]: > 100 µM

c1ccc(/C(=N\Nc2ccc3ccccc3n2)c2ccccn2)cc1
GI50 [1]: 0.534 µM
TGI [1]: 5.16 µM
GI50 [2]: 0.509 µM
TGI [2]: 4.35 µM
GI50 [3]: 1.25 µM
TGI [3]: 55.3 µM
GI50 [4]: 0.116 µM
TGI [4]: 1.72 µM
GI50 [5]: 0.612 µM
TGI [5]: 18 µM
GI50 [6]: 1.29 µM
TGI [6]: > 59.3 µM
GI50 [7]: 0.456 µM
TGI [7]: 17.4 µM
GI50 [8]: 0.604 µM
TGI [8]: 7.4 µM
GI50 [9]: 4.42 µM
TGI [9]: 41.6 µM
GI50 [10]: 0.507 µM
TGI [10]: 25.6 µM

Cn1c2ccccc2c2[nH]c3ccccc3c(=O)c21
TGI [1]: > 100 µM
TGI [2]: > 100 µM
TGI [3]: > 100 µM
TGI [4]: > 100 µM
TGI [5]: > 100 µM
TGI [6]: > 100 µM
TGI [7]: > 100 µM
TGI [8]: > 100 µM
TGI [9]: > 100 µM
TGI [10]: > 100 µM

NS(=O)(=O)c1ccc(N2N=C(c3cccs3)CC2c2ccccc2O)cc1 (stereo not given)
GI50 [1]: 3.4 µM
TGI [1]: 17.4 µM
GI50 [2]: 1.84 µM
TGI [2]: 8.45 µM
GI50 [3]: 1.05 µM
TGI [3]: 4.38 µM
GI50 [4]: 2.05 µM
TGI [4]: 9.15 µM
GI50 [5]: 1.18 µM
TGI [5]: 10.1 µM
GI50 [6]: 1.23 µM
TGI [6]: 11 µM
GI50 [7]: 0.907 µM
TGI [7]: 2.78 µM
GI50 [8]: 1.2 µM
TGI [8]: 5.16 µM
GI50 [9]: 0.845 µM
TGI [9]: 2.7 µM
GI50 [10]: 1.2 µM
TGI [10]: 4.78 µM

Nc1cc(-c2ccccc2)n(C(=O)Nc2ccc(Oc3ccccc3)cc2)n1
GI50 [1]: 49.5 µM
TGI [1]: > 100 µM
GI50 [2]: 29.5 µM
TGI [2]: > 100 µM
GI50 [3]: > 100 µM
TGI [3]: > 100 µM
GI50 [4]: 86.2 µM
TGI [4]: > 100 µM
GI50 [5]: 68.9 µM
TGI [5]: > 100 µM
GI50 [6]: 91.5 µM
TGI [6]: > 100 µM
GI50 [7]: 20.1 µM
TGI [7]: 57.1 µM
GI50 [8]: > 100 µM
TGI [8]: > 100 µM
GI50 [9]: 31.9 µM
TGI [9]: > 100 µM
GI50 [10]: 80.3 µM
TGI [10]: > 100 µM

O=C(Cn1c2ccccc2c2ccncc21)N/N=C\c1ccc2ccccc2c1
GI50 [1]: 21.9 µM
TGI [1]: 65.2 µM
GI50 [2]: 13.8 µM
TGI [2]: 30 µM
GI50 [3]: 19 µM
TGI [3]: > 100 µM
GI50 [4]: 15.6 µM
TGI [4]: 36.5 µM
GI50 [5]: 18.2 µM
TGI [5]: 39.4 µM
GI50 [6]: 17.7 µM
TGI [6]: 42.4 µM
GI50 [7]: 27.8 µM
TGI [7]: > 100 µM
GI50 [8]: 19.2 µM
TGI [8]: 42 µM
GI50 [9]: 23.5 µM
TGI [9]: 79.2 µM
GI50 [10]: 14.7 µM
TGI [10]: 46.6 µM

CN(C)N=Nc1nn(C(=O)Nc2ccc(Cc3ccccc3)cc2)c2ccccc12
GI50 [1]: > 100 µM
TGI [1]: > 100 µM
GI50 [2]: 5.25 µM
TGI [2]: > 100 µM
GI50 [3]: 4.65 µM
TGI [3]: > 100 µM
GI50 [4]: 25.7 µM
TGI [4]: > 100 µM
GI50 [5]: > 100 µM
TGI [5]: > 100 µM
GI50 [6]: > 100 µM
TGI [6]: > 100 µM
GI50 [7]: 4.1 µM
TGI [7]: > 100 µM
GI50 [8]: 2.07 µM
TGI [8]: > 100 µM
GI50 [9]: > 100 µM
TGI [9]: > 100 µM
GI50 [10]: > 100 µM
TGI [10]: > 100 µM

CC1=NN(c2ccccc2)C(=O)C1N=Nc1ccc(S(N)(=O)=O)cc1 (stereo not given)
TGI [1]: > 100 µM
TGI [2]: > 100 µM
TGI [3]: > 100 µM
TGI [4]: > 100 µM
TGI [5]: > 100 µM
TGI [6]: > 100 µM
TGI [7]: > 100 µM
TGI [8]: > 100 µM
TGI [9]: > 100 µM
TGI [10]: > 100 µM
